According to patent US20130085161A1, “PIPERIDINYL SUBSTITUTED 1,3-DIHYDRO-BENZOIMIDAZOL-2-YLIDENEAMINE DERIVATIVES” (NOVARTIS AG, priority 2010, published 2013):

Legend:
BaF3-Tel-IGF1-R [1] = biological target: T1, BaF3-Tel-IGF1-R (Homo sapiens, UniProt P08069); assay: BaF3 cell viability assay (resazurin/AlamarBlue), 96-well format; assay type: cell-based; details: 96-well plate format; 48 h incubation; resazurin dye reduction; cell proliferation/viability
T1 construct: the kinase domain of IGF-1R (aa 976-1367) linked by a Ser-Arg-linker; expressed in transfected cells; host or cells: BaF3 murine proB-cell lymphoma cells, stably transduced
T1 sequence (P08069 976-1367): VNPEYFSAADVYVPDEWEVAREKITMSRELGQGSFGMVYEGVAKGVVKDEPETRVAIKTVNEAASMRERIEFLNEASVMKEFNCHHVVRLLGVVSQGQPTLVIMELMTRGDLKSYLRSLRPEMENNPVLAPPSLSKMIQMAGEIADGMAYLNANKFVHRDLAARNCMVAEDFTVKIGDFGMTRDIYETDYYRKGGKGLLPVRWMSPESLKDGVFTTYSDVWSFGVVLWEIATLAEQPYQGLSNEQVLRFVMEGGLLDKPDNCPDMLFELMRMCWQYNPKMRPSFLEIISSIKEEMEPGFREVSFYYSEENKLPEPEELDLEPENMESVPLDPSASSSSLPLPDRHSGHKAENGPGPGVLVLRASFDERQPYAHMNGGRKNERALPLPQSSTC
From the text: BaF3-Tel-IGF1-R and BaF3-InsR are BaF3 murine proB-cell lymphoma cell derivatives [the BaF3 cell line (also termed Ba/F3) is available from the German Collection of Microorganisms and Cell Cultures (DSMZ), Braunschweig, Germany] that have been rendered IL-3-independent by stable transduction with kinase-activating fusions between human TEL (aa 1-452) and the kinase domain of IGF-1R (aa 976-1367) linked by a Ser-Arg-linker (Boulay et al, Cancer Res 68, 3743-3751, 2008), and a fusion between human TEL (aa 1-337) and the kinase domain (aa 1015-1382) of the Insulin receptor (Melnick J S et al, Proc Natl Acad Sci USA 103, 3153-3158, 2006), respectively. Cells are cultured in RPMI-1640 (Animed #1-14F01-1) supplemented with 2% L-glutamine (Animed #5-10K50-H) and 10% fetal calf serum (FCS, Animed #2-01F16-I). Wild-type, untransfected BaF3 cells are maintained in above medium plus 10 U/ml IL-3 (mouse Interleukin-3, Roche #1380745 or Invitrogen # PMC0035) and are used to identify non-selective, generally growth-inhibitory compounds. Cells (1.5×10^4 cells per well) are seeded in 190 μl fresh medium into 96-well plates. […] In addition, a plate blank value is routinely determined in a well containing only 100 μl of medium and no cells. […] Following incubation of the cells for 48 h at 37° C. and 5% CO2, the effect of inhibitors on cell viability is assessed by the resazurin sodium salt dye reduction assay (commercially known as AlamarBlue assay) basically as previously described (O'Brien J. et al., Eur. J. Biochem. 267: 5421-5426, 2000). […] Thereafter, fluorescence is measured using a Saphirell 96-well plate reader (TECAN, Männedorf, Switzerland) with the following settings: Excitation 544 nm and Emission 590 nm. […] The effect of a particular test compound concentration on cell proliferation and viability is expressed as percentage of the blank-corrected reading obtained for cells treated with vehicle only, which is set as 100%. IC50 values can be determined using XLfit (V4.2), applying standard four parameter logistic model #205 (IDBS, Guilford, UK) or other common curve-fitting software.

BaF3-Tel-IGF1-R [2] = biological target: T1, BaF3-Tel-IGF1-R; assay: BaF3 cell viability assay (resazurin), 384-well format; assay type: cell-based; details: 384-well plate format; 48 h incubation; resazurin dye reduction; cell proliferation/viability
From the text: BaF3-Tel-IGF1-R and BaF3-InsR are BaF3 murine proB-cell lymphoma cell derivatives [the BaF3 cell line (also termed Ba/F3) is available from the German Collection of Microorganisms and Cell Cultures (DSMZ), Braunschweig, Germany] that have been rendered IL-3-independent by stable transduction with kinase-activating fusions between human TEL (aa 1-452) and the kinase domain of IGF-1R (aa 976-1367) linked by a Ser-Arg-linker (Boulay et al, Cancer Res 68, 3743-3751, 2008), and a fusion between human TEL (aa 1-337) and the kinase domain (aa 1015-1382) of the Insulin receptor (Melnick J S et al, Proc Natl Acad Sci USA 103, 3153-3158, 2006), respectively. Cells are cultured in RPMI-1640 (Animed #1-14F01-1) supplemented with 2% L-glutamine (Animed #5-10K50-H) and 10% fetal calf serum (FCS, Animed #2-01F16-I). Wild-type, untransfected BaF3 cells are maintained in above medium plus 10 U/ml IL-3 (mouse Interleukin-3, Roche #1380745 or Invitrogen # PMC0035) and are used to identify non-selective, generally growth-inhibitory compounds. Cells (1.5×10^4 cells per well) are seeded in 190 μl fresh medium into 96-well plates. 10 μl 20× compound solutions are added. As internal control, the kinase inhibitor PKC412 is routinely used. Control cells treated with DMSO (0.1% final concentration) serve as growth reference (set as 100% growth). In addition, a plate blank value is routinely determined in a well containing only […] of medium and no cells. IC50 determinations are performed based on eight 3-fold serial dilutions of the test compound, starting at 10 μM. Following incubation of the cells for 48 h at 37° C. and 5% CO2, the effect of inhibitors on cell viability is assessed by the resazurin sodium salt dye reduction assay (commercially known as AlamarBlue assay) basically as previously described (O'Brien J. et al., Eur. J. Biochem. 267: 5421-5426, 2000). Briefly, 20 μl dye solution is added per well and the plates incubated for 6 h at 37° C. and 5% CO2. Thereafter, fluorescence is measured using a Saphirell 96-well plate reader (TECAN, Männedorf, Switzerland) with the following settings: Excitation 544 nm and Emission 590 nm. For data analysis, the plate blank value is subtracted from all data points. The effect of a particular test compound concentration on cell proliferation and viability is expressed as percentage of the blank-corrected reading obtained for cells treated with vehicle only, which is set as 100%. IC50 values can be determined using XLfit (V4.2), applying standard four parameter logistic model #205 (IDBS, Guilford, UK) or other common curve-fitting software.
To achieve a higher throughput, the cell viability assay can also be performed in a 384-well format. Briefly, 4′500 freshly diluted cells are seeded in 54 μl/well into 384-well plates using a liquid dispenser. 6 μl 10× compound solution is added to the cell plate. As internal control, the kinase inhibitor PKC412 is routinely used. Control cells treated with DMSO (0.1% final concentration) serve as growth reference (set as 100% growth). In addition, a plate blank value is routinely determined in a well containing only 60 μl of medium and no cells. Dose-response effects are determined by 3-fold serial compound dilutions, starting at 10 μM. Following incubation of the cells for 48 h at 37° C. and 5% CO2, the effect of compounds on cell proliferation/viability is assessed by addition of 6 μl resazurin sodium salt dye solution per well. Following incubation for an additional 6 hrs at 37° C. and 5% CO2, fluorescence is measured using an Infiniti M1000 microplate reader (TECAN, Männedorf, Switzerland) with excitation and emission wavelengths set at 544 and 590 nm, respectively. For data analysis, the plate blank value is subtracted from all data points. IC50 values can be determined by four parameter logistic fitting as described above.

Row | SMILES | IC50 (BaF3-Tel-IGF1-R [1]) | IC50 (BaF3-Tel-IGF1-R [2])
1 | Cc1cccc(N2CCC(n3c(=N)n(Cc4cc(F)ccc4Cl)c4ccccc43)CC2)c1 [Example 55, 1-(2-Chloro-5-fluoro-benzyl)-3-(1-m-tolyl-piperidin-4-yl)-1,3-dihydro-benzoimidazol-2-ylideneamine] | 0.288 µM | 
2 | CC(=O)/N=c1\n(Cc2ccccc2Cl)c2ccccc2n1C1CCN(c2cc(Cl)ccc2NC(C)=O)CC1 [Example 59, N-(2-{4-[2-Acetylimino-3-(2-chloro-benzyl)-2,3-dihydro-benzoimidazol-1-yl]-piperidin-1-yl}-4-chloro-phenyl)-acetamide] |  | 0.407 µM
3 | CC(=O)Nc1ccc(C)nc1N1CC[C@H](n2c(=N)n(Cc3cccc4[nH]ccc34)c3ccc(F)cc32)[C@@H](O)C1 (racemic) [Example 67.3, Rac-trans-N-{4-[6-Fluoro-2-imino-3-(1H-indol-4-yl-methyl)-2,3-dihydro-benzo-imidazol-1-yl]-3-hydroxy-6′-methyl-3,4,5,6-tetrahydro-2H-[1,2′]bipyridinyl-3′-yl}-acetamide] |  | 0.167 µM
4 | CC(=O)/N=c1\n(Cc2cccc3[nH]ccc23)c2ccccc2n1C1CCN(c2cc(C)ccc2NC(C)=O)CC1 [Example 66, N-(2-{4-[2-Acetylimino-3-(1H-indol-4-ylmethyl)-2,3-dihydro-benzoimidazol-1-yl]-piperidin-1-yl}-4-methyl-phenyl)-acetamide] |  | 0.18 µM
5 | CC(=O)Nc1ccc(C(F)(F)F)cc1N1CCC(n2c(=N)n(Cc3cccc4[nH]ccc34)c3ccc(F)cc32)CC1 [Example 56.16, N-(2-{4-[6-Fluoro-2-imino-3-(1H-indol-4-ylmethyl)-2,3-dihydro-benzoimidazol-1-yl]-piperidin-1-yl}-4-trifluoromethyl-phenyl)-acetamide] |  | 0.039 µM
6 | Cc1cccc(N2CCC(n3c(=N)n(Cc4ccccc4Cl)c4ccccc43)CC2)c1 [Example 54, 1-(2-Chloro-benzyl)-3-(1-m-tolyl-piperidin-4-yl)-1,3-dihydro-benzoimidazol-2-ylideneamine] | 0.405 µM | 
7 | CC(=O)Nc1ccc(Cl)cc1N1CCC(n2c(=N)n(Cc3cccc4[nH]cnc34)c3ccc(F)cc32)CC1 [Example 64, N-(2-{4-[3-(1H-Benzoimidazol-4-ylmethyl)-6-fluoro-2-imino-2,3-dihydro-benzoimidazol-1-yl]-piperidin-1-yl}-4-chloro-phenyl)-acetamide] |  | 0.163 µM
8 | COc1ccc(NC(C)=O)c(N2CCC(n3c(=N)n(Cc4cccc5[nH]ccc45)c4ccc(F)cc43)CC2)c1 [Example 56.13, N-(2-{4-[6-Fluoro-2-imino-3-(1H-indol-4-ylmethyl)-2,3-dihydro-benzoimidazol-1-yl]-piperidin-1-yl}-4-methoxy-phenyl)-acetamide] |  | 0.009 µM
9 | CC(=O)Nc1ccccc1N1CCC(n2c(=N)n(Cc3ccccc3Cl)c3ccccc32)CC1 [Example 56.6, N-(2-{4-[3-(2-Chloro-benzyl)-2-imino-2,3-dihydro-benzoimidazol-1-yl]-piperidin-1-yl}-phenyl)-acetamide] | 0.093 µM | 0.148 µM
